Experimental data: PMC6736568, “Discovery of Novel Anti-cryptosporidial Activities From Natural Products by in vitro High-Throughput Phenotypic Screening” (Frontiers in Microbiology, 2019)
Where two headings read alike, the source gives them in different places.

Key:
[1] = system: Cryptosporidium parvum; assay: qRT-PCR assay of the growth of C. parvum in vitro in HCT-8 host cells (primary and secondary screening, EC50); type: cell-based
[2] = system: HCT-8 host cells (Hs18S)
[3] = primary screening at 10 uM, from Hs18S ΔCT
[4] = primary screening at 10 uM, treated vs control

COc1ccc(/C=C/c2cc(O)cc(O[C@@H]3O[C@H](CO)[C@@H](O)[C@H](O)[C@H]3O)c2)cc1 [PICEID METHYL ETHER]
Inhibition (%) ([1]; primary screening at 10 uM): 15.82%
Cytotoxicity (%) [2, 3]: 30.3%
Hs18S ΔCT [2, 4]: 0.52

C[C@@H]1CC[C@@]2(OC1)O[C@H]1C[C@H]3[C@@H]4CC[C@@H]5C[C@@H](O)CC[C@]5(C)[C@H]4CC[C@]3(C)[C@H]1[C@@H]2C [SMILAGENIN]
Inhibition (%) ([1]; primary screening at 10 uM): 13.52%
Cytotoxicity (%) [2, 3]: 33.2%
Hs18S ΔCT [2, 4]: 0.58

COc1cc(O)c(C(C)=O)c(O)c1 [4-O-METHYLPHLORACETOPHENONE]
Inhibition (%) ([1]; primary screening at 10 uM): 2.57%
Cytotoxicity (%) [2, 3]: 10.4%
Hs18S ΔCT [2, 4]: 0.16

3-ACETYLGEDUNOL
Inhibition (%) ([1]; primary screening at 10 uM): -40.49%
Cytotoxicity (%) [2, 3]: 56.3%
Hs18S ΔCT [2, 4]: 1.19

O=c1c(O)c(-c2ccc(O)c(O)c2)oc2c(O[C@@H]3O[C@H](CO)[C@@H](O)[C@H](O)[C@H]3O)c(O)cc(O)c12 [GOSSYPIN]
Inhibition (%) ([1]; primary screening at 10 uM): -22.05%
Cytotoxicity (%) [2, 3]: -4.8%
Hs18S ΔCT [2, 4]: -0.07

CCNC(=O)CC[C@H](N)C(=O)[O-].[K+] [THEANINE POTASSIUM]
Inhibition (%) ([1]; primary screening at 10 uM): -54.47%
Cytotoxicity (%) [2, 3]: -36.3%
Hs18S ΔCT [2, 4]: -0.45

COc1cc([C@@H]2c3cc4c(cc3[C@H](OC(C)=O)[C@H]3COC(=O)[C@@H]23)OCO4)cc(OC)c1OC [PICROPODOPHYLLIN ACETATE]
Inhibition (%) ([1]; primary screening at 10 uM): 20.82%
Cytotoxicity (%) [2, 3]: 50.6%
Hs18S ΔCT [2, 4]: 1.02

CC(=O)Oc1cc2c(cc1OC(C)=O)[C@@H]1c3ccc(OC(C)=O)c(OC(C)=O)c3OC[C@]1(OC(C)=O)C2 [HAEMATOXYLIN PENTAACETATE]
Inhibition (%) ([1]; primary screening at 10 uM): -26.73%
Cytotoxicity (%) [2, 3]: 12.3%
Hs18S ΔCT [2, 4]: 0.19

OC[C@H]1O[C@@H](O[C@H]2[C@H](O)[C@@H](O)[C@H](O)O[C@@H]2CO)[C@H](O)[C@@H](O)[C@@H]1O [CELLOBIOSE (D[+])]
Inhibition (%) ([1]; primary screening at 10 uM): -5.56%
Hs18S ΔCT [2, 4]: 0.91

CC1=CC(=O)CC(C)(C)C1(O)/C=C/C(C)=C\C(=O)O (racemic) [ABSCISIC ACID (cis,trans; +/-)]
Inhibition (%) ([1]; primary screening at 10 uM): -7.09%
Cytotoxicity (%) [2, 3]: 36.3%
Hs18S ΔCT [2, 4]: 0.65

O=C(O)[C@@H]1CCCN1 [PROLINE (L)]
Inhibition (%) ([1]; 10 µM): -22.72
Hs18S ΔCT [2]: 0.03
Cytotoxicity (%) ([2]; 10 µM): 1.9

O=c1cc(-c2cc(O)c(O)c(O)c2)oc2cc(O)cc(O)c12 [HIERACIN]
Inhibition (%) ([1]; primary screening at 10 uM): -2.75%
Cytotoxicity (%) ([2]; 10 µM): 31.0%

COC(=O)C1=CO[C@@H](O[C@@H]2O[C@H](CO)[C@@H](O)[C@H](O)[C@H]2O)[C@H]2[C@@H]1C(=O)C[C@@H]2C [VERBENALIN]
Inhibition (%) ([1]; primary screening at 10 uM): -4.48%
Cytotoxicity (%) [2, 3]: 81.7%
Hs18S ΔCT [2, 4]: 2.45

KHAYANTHONE
Inhibition (%) ([1]; primary screening at 10 uM): -5.94%
Cytotoxicity (%) [2, 3]: -0.3%
Hs18S ΔCT [2, 4]: -0.01

C/C1=C\CC/C(C)=C/CC(C)(C)/C=C/C1
Inhibition (%) ([1]; primary screening at 10 uM): -30.91%
Cytotoxicity (%) [2, 3]: 0.1%
Hs18S ΔCT [2, 4]: 0.00

COc1ccc(-c2cc(=O)c3c(OC)c(OC)c(OC)c(OC)c3o2)cc1 [TANGERITIN]
Cytotoxicity (%) [2, 3]: 8.0%
Hs18S ΔCT [2, 4]: 0.12

CC(C)CCC[C@@H](C)[C@H]1CC[C@H]2[C@@H]3CC=C4C[C@@H](OC(=O)c5ccccc5)CC[C@]4(C)[C@H]3CC[C@]12C [CHOLESTERYL BENZOATE]
Inhibition (%) ([1]; primary screening at 10 uM): -14.05%
Cytotoxicity (%) [2, 3]: 5.3%
Hs18S ΔCT [2, 4]: 0.08

AGELASINE (stereochemistry of diterpene unknown)
Inhibition (%) ([1]; primary screening at 10 uM): 43.55%
Cytotoxicity (%) [2, 3]: 16.8%
Hs18S ΔCT [2, 4]: 0.27

MEPARTRICIN
Hs18S ΔCT [2, 4]: -0.51

CCC(C)C(NC)C(=O)O (stereo not drawn) [N-METHYLISOLEUCINE]
Inhibition (%) ([1]; primary screening at 10 uM): -3.51%
Hs18S ΔCT [2]: -0.07
Cytotoxicity (%) ([2]; 10 µM): -5.2

C[C@]12CCC(=O)C=C1CC[C@@H]1[C@@H]2C(=O)C[C@@]2(C)[C@H]1CC[C@]2(O)C(=O)CO [CORTISONE]
Inhibition (%) ([1]; primary screening at 10 uM): -10.93%
Hs18S ΔCT [2, 4]: -0.17

COc1cc(/C=C/C(=O)O)cc(OC)c1O [SINAPIC ACID]
Hs18S ΔCT [2, 4]: 0.25

CN[C@@H]1[C@@H](O[C@H]2O[C@H](CO)[C@@H](N)[C@H](O)[C@H]2O)O[C@H]2C[C@@H](N)[C@@H](O[C@H]3[C@H](O)[C@@H](O)[C@H](N)C[C@@H]3N)O[C@@H]2[C@@H]1O.O=S(=O)(O)O [APRAMYCIN SULFATE]
Inhibition (%) ([1]; primary screening at 10 uM): 42.68%
Cytotoxicity (%) [2, 3]: -3.1%
Hs18S ΔCT [2, 4]: -0.04

O=C(O[C@@H]1Cc2c(O)cc(O)cc2O[C@@H]1c1cc(O)c(O)c(O)c1)c1cc(O)c(O)c(O)c1 [EPIGALLOCATECHIN-3-MONOGALLATE]
Inhibition (%) ([1]; primary screening at 10 uM): 10.02%
Cytotoxicity (%) [2, 3]: -14.2%
Hs18S ΔCT [2, 4]: -0.19

CC1(C)C=Cc2c(c3c(c4c(=O)c(-c5ccc(O)c(O)c5)coc24)OC(C)(C)CC3)O1 [ISOPOMIFERIN]
Cytotoxicity (%) [2, 3]: -5.3%
Hs18S ΔCT [2, 4]: -0.07

CN[C@@H](C)[C@H](O)c1ccccc1.Cl [EPHEDRINE (1R,2S) HYDROCHLORIDE]
Inhibition (%) ([1]; primary screening at 10 uM): 11.97%

MONENSIN SODIUM (monensin A is shown)
Inhibition (%) ([1]; primary screening at 10 uM): 94.05%
% Inhibition (3.3 uM) ([1]; secondary screening at 3.3 uM): 99%

COc1cc(O)c(C(=O)/C=C/c2ccc(O)c(OC)c2)c(OC)c1 [2',4-DIHYDROXY-3,4',6'-TRIMETHOXYCHALCONE]
Hs18S ΔCT [2, 4]: 0.09

CCCCCCCCCCCC[C@@H](C(=O)O)[C@H](C)C(=O)O [ROCCELLIC ACID]
Cytotoxicity (%) [2, 3]: -4.1%
Hs18S ΔCT [2, 4]: -0.06

COc1cc(/C=C/C(=O)O)ccc1O [FERULIC ACID]
Hs18S ΔCT [2, 4]: -0.04

ISOTECTORIGENIN, 7-METHYL ETHER
Inhibition (%) ([1]; primary screening at 10 uM): -18.66%

CN1CCc2cc3c(cc2[C@H]1[C@@H]1OC(=O)c2c1ccc1c2OCO1)OCO3 [BICUCULLINE (+)]
Cytotoxicity (%) [2, 3]: -169.4%
Hs18S ΔCT [2, 4]: -1.43

C=CCc1cc(OC)c2c(c1OC)OCO2 [APIOLE]
Hs18S ΔCT [2, 4]: 0.06

CC(=O)Oc1cc(-c2coc3cc(OC(C)=O)c(OC(C)=O)c(OC(C)=O)c3c2=O)cc(OC(C)=O)c1OC(C)=O [IRIGINOL HEXAACETATE]
Hs18S ΔCT [2, 4]: -0.17

COc1c(O)cc2oc3cc(O)c(CC=C(C)C)c(O)c3c(=O)c2c1CC=C(C)C [alpha-MANGOSTIN]
Cytotoxicity (%) [2, 3]: 95.1%
Hs18S ΔCT [2, 4]: 4.36

HECOGENIN
Hs18S ΔCT [2, 4]: -0.23

CNCc1ccccc1.Cl [N-METHYLBENZYLAMINE HYDROCHLORIDE]
Hs18S ΔCT [2, 4]: -0.08

COC(=O)C[C@H]1C(C)(C)C(=O)[C@@H]2CC3=C(CC[C@]4(C)C3=CC(=O)O[C@H]4c3ccoc3)[C@@]1(C)C2=O [CARAPIN-8(9)-ENE]
Hs18S ΔCT [2, 4]: -0.62

C=C1CC/C=C(\C)CC[C@@H]2[C@@H]1CC2(C)C [CARYOPHYLLENE [t(-)]]
Cytotoxicity (%) [2, 3]: 20.0%
Hs18S ΔCT [2, 4]: 0.32

Cc1cc(=O)oc2cc(O)ccc12 [HYMECHROME]
Hs18S ΔCT [2, 4]: -0.28

CC(=O)O[C@H]1C[C@@H](OC(C)=O)C(C)(C)C2C[C@@H](O)[C@]3(C)C(CC[C@@]4(C)[C@H](c5ccoc5)OC(=O)[C@H]5O[C@]543)[C@]21C (stereo partly drawn) [7-DEACETYLKHIVORIN]
Cytotoxicity (%) [2, 3]: -46.2%
Hs18S ΔCT [2, 4]: -0.55

Cc1c(S(=O)(=O)[O-])oc2c1C(=O)C(=O)c1c-2ccc2c1CCCC2(C)C.[Na+] [TANSHINONE IIA SULFONATE SODIUM]
Hs18S ΔCT [2, 4]: 0.01

CCC(C)C(=O)O[C@@H]1C[C@@]2(C)[C@H](c3ccoc3)OC(=O)CC23OC2(C)OC34[C@H](OC(=O)C(C)C)[C@@]3(O)[C@@H](OC(=O)C5(C)OC5C)[C@@]5(C)C[C@]3(O)[C@@](C)([C@H]5CC(=O)OC)C14O2 (stereo partly drawn) [ENTANDROPHRAGMIN]
Hs18S ΔCT [2, 4]: -0.12

CC[C@H](CC[C@@H](C)[C@H]1CC[C@H]2[C@@H]3CC[C@H]4C[C@@H](O)CC[C@]4(C)[C@H]3CC[C@]12C)C(C)C [FUCOSTANOL]
Cytotoxicity (%) [2, 3]: -61.6%
Hs18S ΔCT [2, 4]: -0.69

C[C@H](CCC(=O)O)[C@H]1CC[C@H]2[C@@H]3[C@H](O)C[C@@H]4C[C@H](O)CC[C@]4(C)[C@H]3C[C@H](O)[C@]12C [CHOLIC ACID]
inhibition at 10 µM ([1]; Cryptosporidium parvum, HCT-8, primary screening at 10 uM, read-out: Inhibition (%)): 26.7%

CC12CCC(CC1=O)C2(C)C [CAMPHOR (1R)]
Hs18S ΔCT [2, 4]: -0.22

Cl.NCCC[C@H](N)C(=O)O [ORNITHINE HYDROCHLORIDE]
Inhibition (%) ([1]; primary screening at 10 uM): -42.36%

CC1(C)C(=O)C=C[C@]2(C)[C@H]3CC[C@@]4(C)[C@H](c5ccoc5)OC(=O)[C@H]5O[C@]54[C@]3(C)C=C[C@@H]12 [7-DESACETOXY-6,7-DEHYDROGEDUNIN]
Hs18S ΔCT [2, 4]: 5.31

COC1=C(OC)C(=O)C(C/C=C(\C)CC/C=C(\C)CC/C=C(\C)CC/C=C(\C)CC/C=C(\C)CC/C=C(\C)CC/C=C(\C)CC/C=C(\C)CC/C=C(\C)CCC=C(C)C)=C(C)C1=O [UBIDECARENEONE]
Cytotoxicity (%) [2, 3]: 21.3%
Hs18S ΔCT [2, 4]: 0.35

COc1cc2c(cc1OC)C1C(=O)c3c(O)cc4c(c3OC1CO2)C=CC(C)(C)O4 (stereo not drawn) [alpha-TOXICAROL (dl)]
Hs18S ΔCT [2, 4]: 0.01
